# Tests used:
# Type in all cases: biochemical
# PKA-IIβ = biological target: T1, PKA-IIβ (Homo sapiens, UniProt P31323); assay: PKA activity assay, PKA-IIβ; conditions: for EC50: read-out: Kact; for A (PKA activity): PKAIIβ
# T1 construct: made in house
# Experimental: (§1) The recombinant human PKA catalytic subunit (Cα1) and the four human PKA regulatory subunits (RIα, RIβ, RIIα, RIIβ) were expressed, purified, and characterized as described. […] PKA holoenzymes were formed by mixing the R- and C-subunit at a molar ratio of 1.2:1 and extensive dialysis against 20 mM MOPS (pH 7.0), 150 mM NaCl, 2.5 mM β-mercaptoethanol, supplemented with 1 mM ATP and 10 mM MgCl2 for PKA-I at 4°C overnight. PKA holoenzymes were used at about 20 nM for the activation assay. The apparent activation constants (Kact) were determined by fitting the concentration-dependent activity to a sigmoid dose-response model.
# Epac2^fl = biological target: T2, Epac2^fl (Mus musculus, UniProt Q9EQZ6); assay: Epac activation assay, full length Epac2; parameters: made in house; conditions: for Rel. kmax: maximal activity relative to cAMP
# T2 sequence (Q9EQZ6 1-993 isoform Q9EQZ6-3): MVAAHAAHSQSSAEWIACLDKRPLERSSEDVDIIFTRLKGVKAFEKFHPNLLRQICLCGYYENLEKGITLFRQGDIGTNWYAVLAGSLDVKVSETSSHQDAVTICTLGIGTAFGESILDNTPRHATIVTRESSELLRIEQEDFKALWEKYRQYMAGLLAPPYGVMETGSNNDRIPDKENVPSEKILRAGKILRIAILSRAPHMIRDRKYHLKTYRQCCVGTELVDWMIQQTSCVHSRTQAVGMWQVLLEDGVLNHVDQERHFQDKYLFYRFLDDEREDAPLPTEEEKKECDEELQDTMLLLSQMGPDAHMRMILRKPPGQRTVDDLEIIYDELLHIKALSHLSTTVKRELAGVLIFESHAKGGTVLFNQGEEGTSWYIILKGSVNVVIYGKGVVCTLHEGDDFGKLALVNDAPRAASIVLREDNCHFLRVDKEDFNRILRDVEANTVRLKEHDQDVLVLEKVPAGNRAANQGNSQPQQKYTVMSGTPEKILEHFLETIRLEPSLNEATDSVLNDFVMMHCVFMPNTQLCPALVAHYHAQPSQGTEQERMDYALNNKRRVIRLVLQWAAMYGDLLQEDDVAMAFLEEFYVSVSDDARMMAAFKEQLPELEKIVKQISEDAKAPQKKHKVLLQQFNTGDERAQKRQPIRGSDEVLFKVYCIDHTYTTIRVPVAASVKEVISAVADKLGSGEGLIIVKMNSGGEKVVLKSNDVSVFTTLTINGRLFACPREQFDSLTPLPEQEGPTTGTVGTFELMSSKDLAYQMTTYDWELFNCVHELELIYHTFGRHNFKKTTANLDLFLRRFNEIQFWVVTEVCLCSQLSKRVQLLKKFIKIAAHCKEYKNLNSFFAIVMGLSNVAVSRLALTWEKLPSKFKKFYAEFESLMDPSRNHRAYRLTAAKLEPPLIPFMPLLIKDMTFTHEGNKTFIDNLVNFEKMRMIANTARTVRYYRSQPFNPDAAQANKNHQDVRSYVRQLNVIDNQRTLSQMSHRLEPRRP
# Experimental: Murine Epac2 was used as all previous structural studies were performed with it.
# The activity of Epac was determined by a fluorescence assay. […] The fluorescence intensity of Rap1B•mGDP is approximately twice that of free mGDP, and thus, nucleotide exchange can be observed as a decay in fluorescence upon the addition of excess unlabeled GDP.
# PKA-Iα = biological target: T3, PKA-Iα (Homo sapiens, UniProt P10644); assay: PKA activity assay (coupled spectrophotometric, Kemptide), PKA-Iα; conditions: for EC50: read-out: Kact; for A (PKA activity): PKAIα
# T3 construct: made in house
# T3 sequence (P10644 whole entry): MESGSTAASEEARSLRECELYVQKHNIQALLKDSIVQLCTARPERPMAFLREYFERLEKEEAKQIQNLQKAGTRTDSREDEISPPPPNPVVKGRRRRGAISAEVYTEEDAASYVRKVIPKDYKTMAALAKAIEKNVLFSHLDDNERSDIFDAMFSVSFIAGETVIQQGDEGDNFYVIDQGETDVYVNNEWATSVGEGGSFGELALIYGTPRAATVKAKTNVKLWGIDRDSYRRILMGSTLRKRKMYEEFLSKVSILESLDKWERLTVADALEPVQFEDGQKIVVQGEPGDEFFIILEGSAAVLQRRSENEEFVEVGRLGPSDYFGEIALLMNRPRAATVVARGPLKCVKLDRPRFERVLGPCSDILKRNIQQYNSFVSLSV
# Experimental: as §1
# T1 sequence (P31323 whole entry): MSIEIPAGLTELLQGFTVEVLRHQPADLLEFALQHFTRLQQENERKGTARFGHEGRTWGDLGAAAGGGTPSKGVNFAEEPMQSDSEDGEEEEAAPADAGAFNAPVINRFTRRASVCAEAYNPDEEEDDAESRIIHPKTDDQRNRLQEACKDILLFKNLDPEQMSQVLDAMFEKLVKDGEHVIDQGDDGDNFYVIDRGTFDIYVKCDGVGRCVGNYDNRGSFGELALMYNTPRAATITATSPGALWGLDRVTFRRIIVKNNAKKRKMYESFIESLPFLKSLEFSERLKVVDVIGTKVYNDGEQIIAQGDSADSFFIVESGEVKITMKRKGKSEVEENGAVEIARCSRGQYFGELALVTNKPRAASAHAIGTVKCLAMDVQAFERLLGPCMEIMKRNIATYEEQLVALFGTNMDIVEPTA
compound,measurement,setting,value
"COC1C2OP(=O)(O)OCC2OC1n1c(Sc2ccc(Cl)cc2)nc2c(N)ncnc21 [D-007, 8-pCPT-2′-O-Me-cAMP, reference compound]",EC50,PKA-IIβ; PKA-IIβ,50 µM
same,A (PKA activity),PKA-IIβ; concentration 1 μM,6.99 U/mg
same,A (PKA activity),PKA-IIβ; concentration 1.00E+01 μM,1.06E+01 U/mg
same,A (PKA activity),PKA-IIβ; concentration 1.00E-01 μM,6.554 U/mg
same,A (PKA activity),PKA-IIβ; concentration 1.00E-05 μM,2.8563 U/mg
same,A (PKA activity),PKA-IIβ; concentration 2.50E+02 μM,1.60E+01 U/mg
same,A (PKA activity),PKA-IIβ; concentration 5.00E+01 μM,1.46E+01 U/mg
same,A (PKA activity),PKA-IIβ; concentration 5.00E+02 μM,1.87E+01 U/mg
same,kobs,Epac2^fl; 0.3 μM compound,1.59e-05 s⁻¹
same,kobs,Epac2^fl; 0.5 μM compound,1.62e-05 s⁻¹
same,kobs,Epac2^fl; 0.8 μM compound,1.75e-05 s⁻¹
same,kobs,Epac2^fl; 1 μM compound,1.95e-05 s⁻¹
same,kobs,Epac2^fl; 2 μM compound,2.18e-05 s⁻¹
same,kobs,Epac2^fl; 3 μM compound,2.37e-05 s⁻¹
same,kobs,Epac2^fl; 4 μM compound,2.69e-05 s⁻¹
same,kobs,Epac2^fl; 5 μM compound,2.86e-05 s⁻¹
same,kobs,Epac2^fl; 6 μM compound,3.39e-05 s⁻¹
same,kobs,Epac2^fl; 7 μM compound,3.51e-05 s⁻¹
same,kobs,Epac2^fl; 8 μM compound,3.74e-05 s⁻¹
same,kobs,Epac2^fl; 10 μM compound,4.22e-05 s⁻¹
same,kobs,Epac2^fl; 20 μM compound,5.69e-05 s⁻¹
same,kobs,Epac2^fl; 30 μM compound,7e-05 s⁻¹
same,kobs,Epac2^fl; 40 μM compound,7.51e-05 s⁻¹
same,kobs,Epac2^fl; 50 μM compound,7.76e-05 s⁻¹
same,kobs,Epac2^fl; 60 μM compound,8.43e-05 s⁻¹
same,kobs,Epac2^fl; 70 μM compound,8.92e-05 s⁻¹
same,kobs,Epac2^fl; 80 μM compound,9.01e-05 s⁻¹
same,kobs,Epac2^fl; 100 μM compound,9.57e-05 s⁻¹
same,kobs,Epac2^fl; 200 μM compound,9.52e-05 s⁻¹
same,kobs,Epac2^fl; 400 μM compound,9.57e-05 s⁻¹
same,kobs,Epac2^fl; 600 μM compound,9.06e-05 s⁻¹
same,kobs,Epac2^fl; 800 μM compound,8.29e-05 s⁻¹
same,ability to reach half-maximal cAMP activity,Epac2^fl; Epac2,reaches half-maximal cAMP activity with Epac2 only under saturating conditions
same,AC50,Epac2^fl; Epac2^fl,16 µM
same,Rel. kmax,Epac2^fl; Epac2^fl,0.4
same,EC50,PKA-Iα; PKA-Iα,14 µM
same,A (PKA activity),PKA-Iα; concentration 1 μM,3.924 U/mg
same,A (PKA activity),PKA-Iα; concentration 1.00E+01 μM,1.06E+01 U/mg
same,A (PKA activity),PKA-Iα; concentration 1.00E+02 μM,1.58E+01 U/mg
same,A (PKA activity),PKA-Iα; concentration 1.00E-01 μM,3.7714 U/mg
same,A (PKA activity),PKA-Iα; concentration 1.00E-03 μM,3.6515 U/mg
same,A (PKA activity),PKA-Iα; concentration 1.00E-05 μM,2.6923 U/mg
same,A (PKA activity),PKA-Iα; concentration 2.50E+01 μM,1.22E+01 U/mg
same,A (PKA activity),PKA-Iα; concentration 2.50E+02 μM,1.83E+01 U/mg
same,A (PKA activity),PKA-Iα; concentration 5.00E+02 μM,1.79E+01 U/mg
same,A (PKA activity),PKA-Iα; concentration […],7.9352 U/mg
"Nc1ncnc2c1nc(SCc1ccccc1)n2[C@@H]1O[C@@H]2CO[P@](O)(=S)O[C@H]2[C@H]1O [S-220, Sp-8-BnT-cAMPS]",Kact compared to cAMP (times higher / affinity reduced),PKA-IIβ; PKA-IIβ,comparable affinities
same,EC50,PKA-IIβ; PKA-IIβ,0.21 µM
same,A (PKA activity),PKA-IIβ; concentration 1 μM,1.92E+01 U/mg
same,A (PKA activity),PKA-IIβ; concentration 1.00E+01 μM,2.49E+01 U/mg
same,A (PKA activity),PKA-IIβ; concentration 1.00E-01 μM,1.08E+01 U/mg
same,A (PKA activity),PKA-IIβ; concentration 1.00E-02 μM,5.378 U/mg
same,A (PKA activity),PKA-IIβ; concentration 1.00E-03 μM,4.482 U/mg
same,A (PKA activity),PKA-IIβ; concentration 1.00E-04 μM,4.9341 U/mg
same,A (PKA activity),PKA-IIβ; concentration 1.00E-05 μM,2.8563 U/mg
same,A (PKA activity),PKA-IIβ; concentration 2.50E+02 μM,2.44E+01 U/mg
same,A (PKA activity),PKA-IIβ; concentration 2.50E-01 μM,1.60E+01 U/mg
same,kobs,Epac2^fl; 0.001 μM compound,1.9e-05 s⁻¹
same,kobs,Epac2^fl; 0.03 μM compound,4.4e-05 s⁻¹
same,kobs,Epac2^fl; 0.04 μM compound,4.9e-05 s⁻¹
same,kobs,Epac2^fl; 0.05 μM compound,5.4e-05 s⁻¹
same,kobs,Epac2^fl; 0.06 μM compound,6e-05 s⁻¹
same,kobs,Epac2^fl; 0.07 μM compound,6.8e-05 s⁻¹
same,kobs,Epac2^fl; 0.08 μM compound,6.9e-05 s⁻¹
same,kobs,Epac2^fl; 0.1 μM compound,9.1e-05 s⁻¹
same,kobs,Epac2^fl; 0.2 μM compound,0.00016 s⁻¹
same,kobs,Epac2^fl; 0.3 μM compound,0.000217 s⁻¹
same,kobs,Epac2^fl; 0.4 μM compound,0.000258 s⁻¹
same,kobs,Epac2^fl; 0.5 μM compound,0.000295 s⁻¹
same,kobs,Epac2^fl; 0.6 μM compound,0.000369 s⁻¹
same,kobs,Epac2^fl; 0.7 μM compound,0.000402 s⁻¹
same,kobs,Epac2^fl; 0.8 μM compound,0.000428 s⁻¹
same,kobs,Epac2^fl; 1 μM compound,0.000509 s⁻¹
same,kobs,Epac2^fl; 2 μM compound,0.000819 s⁻¹
same,kobs,Epac2^fl; 3 μM compound,0.000975 s⁻¹
same,kobs,Epac2^fl; 4 μM compound,0.00102 s⁻¹
same,kobs,Epac2^fl; 5 μM compound,0.0011 s⁻¹
same,kobs,Epac2^fl; 6 μM compound,0.00114 s⁻¹
same,kobs,Epac2^fl; 7 μM compound,0.00118 s⁻¹
same,kobs,Epac2^fl; 8 μM compound,0.00118 s⁻¹
same,kobs,Epac2^fl; 10 μM compound,0.00125 s⁻¹
same,kobs,Epac2^fl; 20 μM compound,0.00149 s⁻¹
same,kobs,Epac2^fl; 30 μM compound,0.00153 s⁻¹
same,kobs,Epac2^fl; 40 μM compound,0.00152 s⁻¹
same,kobs,Epac2^fl; 50 μM compound,0.0015 s⁻¹
same,kobs,Epac2^fl; 60 μM compound,0.00155 s⁻¹
same,kobs,Epac2^fl; 70 μM compound,0.00155 s⁻¹
same,kobs,Epac2^fl; 80 μM compound,0.00152 s⁻¹
same,kobs,Epac2^fl; 100 μM compound,0.0015 s⁻¹
same,AC50,Epac2^fl; Epac2^fl,2.1 µM
same,potency relative to cAMP by activation potential (times more potently than cAMP),Epac2^fl; Epac2^fl,200 times
same,Rel. kmax,Epac2^fl; Epac2^fl,6.6
same,Kact compared to cAMP (times higher),PKA-Iα; PKA-Iα,three to eight times higher
same,EC50,PKA-Iα; PKA-Iα,0.29 µM
same,A (PKA activity),PKA-Iα; concentration 1 μM,1.97E+01 U/mg
same,A (PKA activity),PKA-Iα; concentration 1.00E+01 μM,2.59E+01 U/mg
same,A (PKA activity),PKA-Iα; concentration 1.00E-01 μM,9.4227 U/mg
same,A (PKA activity),PKA-Iα; concentration 1.00E-02 μM,3.6309 U/mg
same,A (PKA activity),PKA-Iα; concentration 1.00E-03 μM,3.7632 U/mg
same,A (PKA activity),PKA-Iα; concentration 1.00E-05 μM,3.6309 U/mg
same,A (PKA activity),PKA-Iα; concentration 2.50E+02 μM,2.40E+01 U/mg
same,A (PKA activity),PKA-Iα; concentration 2.50E-01 μM,1.33E+01 U/mg
same,A (PKA activity),PKA-Iα; concentration 5.00E+01 μM,2.52E+01 U/mg
